Experimental data reported in PMC8312956, “T. cruzi DNA polymerase beta (Tcpolβ) is phosphorylated in vitro by CK1, CK2 and TcAUK1 leading to the potentiation of its DNA synthesis activity” (PLoS Neglected Tropical Diseases, 2021).

Experiments:
TcCK2α = target: T1, TcCK2α (Trypanosoma cruzi, UniProt Q4E340); assay: […]-ATP phosphorylation of pCK2β, SDS-PAGE autoradiography; type: biochemical
T1 construct: gene Tc00.1047053508741.320; recombinant TcCK2α in hybrid CK2 holoenzyme; with S. pombe CK2β (pCK2β)
T1 sequence (P40232 whole entry): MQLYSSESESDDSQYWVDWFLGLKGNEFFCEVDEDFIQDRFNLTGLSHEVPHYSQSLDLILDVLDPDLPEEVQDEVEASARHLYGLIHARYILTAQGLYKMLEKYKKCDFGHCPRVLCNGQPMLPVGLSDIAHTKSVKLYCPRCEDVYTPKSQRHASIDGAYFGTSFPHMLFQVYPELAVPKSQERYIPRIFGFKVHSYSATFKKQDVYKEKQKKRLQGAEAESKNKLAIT
T1 sequence (Q4E340 entry or part of it): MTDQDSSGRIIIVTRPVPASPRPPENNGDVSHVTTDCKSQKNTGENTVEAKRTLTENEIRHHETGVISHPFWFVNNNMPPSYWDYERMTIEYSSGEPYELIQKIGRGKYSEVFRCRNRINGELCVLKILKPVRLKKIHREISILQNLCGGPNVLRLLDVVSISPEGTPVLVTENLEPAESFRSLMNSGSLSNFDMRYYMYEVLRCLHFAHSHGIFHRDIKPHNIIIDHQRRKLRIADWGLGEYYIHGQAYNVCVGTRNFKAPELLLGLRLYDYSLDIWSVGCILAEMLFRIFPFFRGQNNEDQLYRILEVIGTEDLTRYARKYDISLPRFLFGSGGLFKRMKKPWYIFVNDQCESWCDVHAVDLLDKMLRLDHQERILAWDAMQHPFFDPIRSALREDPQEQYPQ

TcAUK1 = target: T2, TcAUK1 (Trypanosoma cruzi, UniProt Q4DKE3); assay: […]-ATP phosphorylation of Tcpolβ, SDS-PAGE autoradiography; over […] decrease at […]; type: biochemical
T2 construct: gene Tc00.1047053508817.80; recombinant, expressed in E. coli (pET15b), renatured and purified
T2 sequence (Q4DKE3 entry or part of it): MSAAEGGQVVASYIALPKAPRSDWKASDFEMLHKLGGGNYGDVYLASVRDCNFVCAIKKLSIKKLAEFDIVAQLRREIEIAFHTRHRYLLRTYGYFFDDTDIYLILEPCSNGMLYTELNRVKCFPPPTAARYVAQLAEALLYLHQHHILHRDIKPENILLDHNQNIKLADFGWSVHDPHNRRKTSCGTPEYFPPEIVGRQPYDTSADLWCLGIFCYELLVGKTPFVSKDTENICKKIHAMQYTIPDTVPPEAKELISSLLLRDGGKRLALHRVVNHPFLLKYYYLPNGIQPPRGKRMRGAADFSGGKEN

Question: With `Brc1c(Br)c(Br)c2[nH]nnc2c1Br` [TBB, 4,5,6,7-tetrabromobenzotriazole] as the compound, how does the IC50 (TcCK2α) read?
Answer: 500 to 1000 nM

Question: `O=C(Nc1cccc(Cl)c1)Nc1ncc(CCNc2ncnc3ccsc23)s1` [SNS314] was tested. Which “32P-ATP phosphorylation of Tcpolβ, SDS-PAGE autoradiography; over 60% decrease a” value (TcAUK1) did it give?
Answer: ~ 48 nM
